The values below come from ChEMBL document CHEMBL4004838, “Design and synthesis of novel phenyl -1, 4-beta-carboline-hybrid molecules as potential anticancer agents” (Eur J Med Chem, 2017).

In brackets after ≈: the same amount, converted by molar mass.

Assay [1] relates to LNCaP. The assay is described as follows: Cytotoxicity against human LNCAP cells assessed as cell viability after 72 hrs by MTT assay. The class given is functional, cell-based. In general terms: Tetrazolium dyes change colour on reduction, which living cells bring about.
Assay [2] concerns HepG2. The assay can be described thus: Cytotoxicity against human HepG2 cells assessed as cell viability after 72 hrs by MTT assay. The class given is functional, cell-based. Particulars: HepG2, 72 h.
Assay [3] concerns MCF7. The assay can be described thus: Cytotoxicity against human MCF7 cells assessed as cell viability after 72 hrs by MTT assay. The class given is functional, cell-based. The settings on record: MCF7, 72 h.
Assay [4] deals with Kinesin-like protein KIF11 (Homo sapiens, UniProt P52732). The assay can be described thus: Inhibition of EG5 (unknown origin).
Chain of Kinesin-like protein KIF11 (P52732 whole entry): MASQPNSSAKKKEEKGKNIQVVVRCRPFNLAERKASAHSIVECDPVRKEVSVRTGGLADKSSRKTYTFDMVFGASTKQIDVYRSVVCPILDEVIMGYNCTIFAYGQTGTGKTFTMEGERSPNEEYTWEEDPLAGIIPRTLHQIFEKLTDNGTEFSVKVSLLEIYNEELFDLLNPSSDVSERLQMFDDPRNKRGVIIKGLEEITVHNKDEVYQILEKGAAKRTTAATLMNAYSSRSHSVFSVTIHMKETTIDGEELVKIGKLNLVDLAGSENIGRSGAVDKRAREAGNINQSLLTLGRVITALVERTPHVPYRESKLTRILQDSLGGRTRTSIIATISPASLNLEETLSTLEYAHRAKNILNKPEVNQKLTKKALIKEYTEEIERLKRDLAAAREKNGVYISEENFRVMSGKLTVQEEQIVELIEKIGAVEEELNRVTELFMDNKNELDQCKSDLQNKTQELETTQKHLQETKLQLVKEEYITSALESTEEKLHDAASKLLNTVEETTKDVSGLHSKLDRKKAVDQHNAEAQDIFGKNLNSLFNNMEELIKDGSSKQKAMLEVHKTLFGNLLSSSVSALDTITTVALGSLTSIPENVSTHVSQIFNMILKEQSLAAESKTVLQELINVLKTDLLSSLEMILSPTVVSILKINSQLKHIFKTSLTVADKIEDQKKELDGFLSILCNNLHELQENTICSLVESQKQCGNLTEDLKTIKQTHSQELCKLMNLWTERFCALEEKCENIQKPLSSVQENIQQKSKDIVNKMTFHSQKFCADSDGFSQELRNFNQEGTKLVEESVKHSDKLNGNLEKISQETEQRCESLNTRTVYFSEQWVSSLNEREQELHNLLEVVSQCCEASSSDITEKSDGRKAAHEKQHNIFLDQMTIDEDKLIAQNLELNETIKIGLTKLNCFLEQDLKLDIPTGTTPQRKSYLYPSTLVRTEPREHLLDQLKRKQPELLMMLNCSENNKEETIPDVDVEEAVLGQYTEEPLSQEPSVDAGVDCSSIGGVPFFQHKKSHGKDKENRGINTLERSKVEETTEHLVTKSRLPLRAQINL

For the molecule `COc1cccc2c1C(=O)c1c(O)c3c(c(O)c1C2=O)C[C@@](O)(C(=O)CO)C[C@@H]3O[C@H]1C[C@H](N)[C@H](O)[C@H](C)O1` [DOXORUBICIN], the IC50 (commonly the concentration needed to halve the response being measured) in assay [1] was determined as 5.28 µg/mL (≈ 9.71 µM); in assay [2], 4.23 µg/mL (≈ 7.78 µM).
Take `c1ccc2c3c([nH]c2c1)[C@@H](c1ccc([C@H]2NCCc4c2[nH]c2ccccc42)cc1)NCC3`: the IC50 in assay [3] worked out at 8.7 µg/mL (≈ 20.8 µM); in assay [1], 15.2 µg/mL (≈ 36.4 µM); in assay [2], 5.22 µg/mL (≈ 12.5 µM).
For `CCCCN1C(=O)[C@H]2Cc3c([nH]c4ccccc34)[C@@H](c3cccc(O)c3)N2C1=O`, the IC50 in assay [4] was 800 nM.
With `c1ccc2c3c([nH]c2c1)[C@H](c1ccc([C@@H]2NCCc4c2[nH]c2ccccc42)cc1)NCC3`, the half-inhibitory concentration (IC50) in assay [3] was 5.19 µg/mL (≈ 12.4 µM); in assay [1], 13.3 µg/mL (≈ 31.8 µM); in assay [2] it was 6.22 µg/mL (≈ 14.9 µM).
